Results reported in US10738028B2, “Spiro three-membered ring, spiro five-membered ring peptide deformylase inhibitor and use thereof in antibacteria and anti-tumor” (priority 2016, dated 2020).
≈ marks a conversion by molar mass, not a printed value. Read-outs that look alike come from different tables or passages of the source. Each block holds one compound with its values, some of them ahead of it.

Tests used:
Format in all cases: cell-based
[1] = system: methicillin-sensitive Staphylococcus aureus (MSSA); assay: MIC, two-fold agar dilution (CLSI), clinical isolates
Text: (§1) 1. The invention adopts the two-fold agar dilution method recommended by the operating procedure of antimicrobial susceptibility testing set by American Clinical and Laboratory Standards Institute (CLSI) to determine the Minimum Inhibitory Concentration (MIC) of the test samples against the tested strains.

[2] = system: Enterococcus faecium (EFM); assay: as above
Text: as §1

[3] = system: methicillin-resistant Staphylococcus aureus (MRSA); assay: as above; settings: for Measured MIC: Table 8, strain and unit inferred, MRSA
Text: as §1

[4] = system: methicillin-sensitive Staphylococcus epidermidis (MSSE); assay: as above
Text: as §1

[5] = system: Escherichia coli (including ESBLs, non-ESBLs); assay: as above
Text: as §1

[6] = system: Moraxella catarrhalis (BCA); assay: as above
Text: as §1

[7] = system: Enterococcus faecalis (EFA); assay: as above
Text: as §1

[8] = system: Streptococcus pneoumoniae (SPN); assay: as above
Text: as §1

[9] = system: methicillin-resistant Staphylococcus epidermidis (MRSE); assay: as above
Text: as §1

[10] = system: HCT-116 colorectal cancer cell line; assay: CCK-8 proliferation inhibition; settings: Homo sapiens, HCT-116, 72 h, read-out: HCT116 inhibition rate/%
Protocol: (1) HCT-116 colorectal cancer cell line, A549 lung cancer cell line, MGC-803 gastric cancer cell line, BEL-7402 liver cancer cell line, Jurkat T cell leukemia cell line, HL60 acute myeloid leukemia cell line, Hela cervical cancer cell line, MCF-7 breast cancer cell line, PC3 prostate cancer cell line and SAOS-2 osteosarcoma cell line were made into single cell suspension, 180 μL of which was inoculated into 96-well culture plate, which was cultured overnight in CO2 incubator (37° C., 5% CO2, 95% air).
(2) Each of the spiro three-membered ring, spiro five membered ring peptide deformylase inhibitors was dissolved in DMSO, and was further formulated into drug solution with required different final concentration using corresponding cell culture medium. The drug solutions were added to the above cells respectively (20 μL/well), with the control group added with 1‰ DMSO, and cultured in a CO2 incubator for 72 hours.
(3) After incubation for 72 hours, the culture solution was decanted, and 100 μL of 1:10 diluted CCK-8 solution was added.
Wherein, in step (1), the concentration of the single cell suspension was 2000 cells/well.
Wherein, in step (2), HCT-116 cells were cultured in McCoy's 5A medium (containing 10% newborn bovine serum, 1% double antibody); A549 and PC3 cells were cultured in F12 medium (containing 10% newborn bovine serum, 1% double antibody); MGC-803, BEL-7402, SAOS-2, Jurkat and HL60 cells were cultured in 1640 medium (containing 10% newborn bovine serum, 1% double antibody); and MCF-7 and Hela cells were cultured in DMEM high glucose medium (containing 10% newborn bovine serum, 1% double antibody).

Compound: CCCC[C@H](CN(O)C=O)C(=O)N1CC2(CC2)C[C@H]1c1nc2ccccc2n1CCN(C)C [Example 24]
MIC (anti-bacterial activity) ([1]; strain MSSA 15-3): 8 µg/mL (≈ 17.6 µM) | MIC (anti-bacterial activity) ([1]; strain MSSA 15-4): 8 µg/mL (≈ 17.6 µM) | MIC (anti-bacterial activity) ([1]; strain MSSA 15-5): 8 µg/mL (≈ 17.6 µM) | MIC (anti-bacterial activity) ([1]; strain MSSA 15-6): 8 µg/mL (≈ 17.6 µM) | MIC (anti-bacterial activity) ([2]; strain EFM 15-1): 4 µg/mL (≈ 8.78 µM) | MIC (anti-bacterial activity) ([2]; strain EFM 15-2): 8 µg/mL (≈ 17.6 µM) | MIC (anti-bacterial activity) ([2]; strain EFM 15-3): 2 µg/mL (≈ 4.39 µM) | MIC (anti-bacterial activity) ([2]; strain EFM 15-4): 8 µg/mL (≈ 17.6 µM) | MIC (anti-bacterial activity) ([2]; strain EFM 15-5): 4 µg/mL (≈ 8.78 µM) | MIC (anti-bacterial activity) ([2]; strain EFM 15-6): 8 µg/mL (≈ 17.6 µM) | MIC (anti-bacterial activity) ([3]; strain MRSA 15-1): 8 µg/mL (≈ 17.6 µM) | MIC (anti-bacterial activity) ([3]; strain MRSA 15-2): 32 µg/mL (≈ 70.2 µM) | MIC (anti-bacterial activity) ([3]; strain MRSA 15-3): 32 µg/mL (≈ 70.2 µM) | MIC (anti-bacterial activity) ([3]; strain MRSA 15-4): 8 µg/mL (≈ 17.6 µM) | MIC (anti-bacterial activity) ([4]; strain MSSE 15-3): 8 µg/mL (≈ 17.6 µM) | MIC (anti-bacterial activity) ([4]; strain MSSE 15-4): 2 µg/mL (≈ 4.39 µM) | MIC (anti-bacterial activity) ([4]; strain MSSE 15-5): 2 µg/mL (≈ 4.39 µM) | MIC (anti-bacterial activity) ([4]; strain MSSE 15-6): 2 µg/mL (≈ 4.39 µM) | MIC (anti-bacterial activity) ([5]; strain ECO+ 15-1): 8 µg/mL (≈ 17.6 µM) | MIC (anti-bacterial activity) ([5]; strain ECO+ 15-2): 16 µg/mL (≈ 35.1 µM) | MIC (anti-bacterial activity) ([5]; strain ECO+ 15-3): 16 µg/mL (≈ 35.1 µM) | MIC (anti-bacterial activity) ([5]; strain ECO+ 15-4): 16 µg/mL (≈ 35.1 µM) | MIC (anti-bacterial activity) ([5]; strain ECO− 15-1): 8 µg/mL (≈ 17.6 µM) | MIC (anti-bacterial activity) ([5]; strain ECO− 15-2): 16 µg/mL (≈ 35.1 µM) | MIC (anti-bacterial activity) ([5]; strain ECO− 15-3): 32 µg/mL (≈ 70.2 µM) | MIC (anti-bacterial activity) ([5]; strain ECO− 15-4): 16 µg/mL (≈ 35.1 µM) | MIC (anti-bacterial activity) ([6]; strain BCA 14-1): 32 µg/mL (≈ 70.2 µM) | MIC (anti-bacterial activity) ([6]; strain BCA 14-4): 16 µg/mL (≈ 35.1 µM) | MIC (anti-bacterial activity) ([6]; strain BCA 14-5): 8 µg/mL (≈ 17.6 µM) | MIC (anti-bacterial activity) ([6]; strain BCA 14-6): 32 µg/mL (≈ 70.2 µM) | MIC (anti-bacterial activity) ([6]; strain BCA 14-7): 8 µg/mL (≈ 17.6 µM) | MIC (anti-bacterial activity) ([6]; strain BCA 14-8): 8 µg/mL (≈ 17.6 µM) | MIC (anti-bacterial activity) ([6]; strain BCA 14-10): 8 µg/mL (≈ 17.6 µM) | MIC (anti-bacterial activity) ([7]; strain EFA 15-1): 32 µg/mL (≈ 70.2 µM) | MIC (anti-bacterial activity) ([7]; strain EFA 15-2): 32 µg/mL (≈ 70.2 µM) | MIC (anti-bacterial activity) ([7]; strain EFA 15-3): 8 µg/mL (≈ 17.6 µM) | MIC (anti-bacterial activity) ([7]; strain EFA 15-4): 32 µg/mL (≈ 70.2 µM) | MIC (anti-bacterial activity) ([7]; strain EFA 15-5): 32 µg/mL (≈ 70.2 µM) | MIC (anti-bacterial activity) ([7]; strain EFA 15-6): 32 µg/mL (≈ 70.2 µM) | MIC (anti-bacterial activity) ([7]; strain EFA 15-9): 32 µg/mL (≈ 70.2 µM) | MIC (anti-bacterial activity) ([8]; strain SPN 16-2): 4 µg/mL (≈ 8.78 µM) | MIC (anti-bacterial activity) ([8]; strain SPN 16-4): 1 µg/mL (≈ 2.19 µM) | MIC (anti-bacterial activity) ([9]; strain MRSE 15-1): 8 µg/mL (≈ 17.6 µM) | MIC (anti-bacterial activity) ([9]; strain MRSE 15-2): 8 µg/mL (≈ 17.6 µM) | MIC (anti-bacterial activity) ([9]; strain MRSE 15-3): 8 µg/mL (≈ 17.6 µM) | MIC (anti-bacterial activity) ([9]; strain MRSE 15-7): 8 µg/mL (≈ 17.6 µM) | inhibition at 30 µM ([10]; concentration of 30 μM, 72 hours, CCK-8): 2%

Measured MIC [3]: 1 µg/mL
Compound: CCCC[C@H](CN(O)C=O)C(=O)N1CC=C[C@H]1C(=O)Nc1ccc(F)c[n+]1[O-] [B, reference compound]

Compound: CCCC[C@H](CN(O)C=O)C(=O)N1CC2(CC2)C[C@H]1C(=O)Nc1cc[nH]n1 [Example 1]
MIC (anti-bacterial activity) ([1]; strain MSSA 14-1): 16 µg/mL (≈ 42.4 µM) | MIC (anti-bacterial activity) ([1]; strain MSSA 14-2): 16 µg/mL (≈ 42.4 µM) | MIC (anti-bacterial activity) ([1]; strain MSSA 14-3): 16 µg/mL (≈ 42.4 µM) | MIC (anti-bacterial activity) ([1]; strain MSSA 14-4): 16 µg/mL (≈ 42.4 µM) | MIC (anti-bacterial activity) ([3]; strain MRSA 14-1): 16 µg/mL (≈ 42.4 µM) | MIC (anti-bacterial activity) ([3]; strain MRSA 14-2): 32 µg/mL (≈ 84.8 µM) | MIC (anti-bacterial activity) ([3]; strain MRSA 14-4): 16 µg/mL (≈ 42.4 µM) | MIC (anti-bacterial activity) ([3]; strain MRSA 14-5): 8 µg/mL (≈ 21.2 µM) | MIC (anti-bacterial activity) ([3]; strain printed MRSA 14-1 (second line of that name, r23, before MRSE 14-2)): 8 µg/mL (≈ 21.2 µM) | MIC (anti-bacterial activity) ([4]; strain MSSE 14-1): 4 µg/mL (≈ 10.6 µM) | MIC (anti-bacterial activity) ([4]; strain MSSE 14-2): 16 µg/mL (≈ 42.4 µM) | MIC (anti-bacterial activity) ([4]; strain MSSE 14-3): 4 µg/mL (≈ 10.6 µM) | MIC (anti-bacterial activity) ([4]; strain MSSE 14-4): 4 µg/mL (≈ 10.6 µM) | MIC (anti-bacterial activity) ([5]; strain ECO+ 14-1): 16 µg/mL (≈ 42.4 µM) | MIC (anti-bacterial activity) ([5]; strain ECO+ 14-2): 128 µg/mL (≈ 339 µM) | MIC (anti-bacterial activity) ([5]; strain ECO− 14-1): > 128 µg/mL | MIC (anti-bacterial activity) ([5]; strain ECO− 14-2): > 128 µg/mL | MIC (anti-bacterial activity) ([7]; strain EFA 14-1): 64 µg/mL (≈ 170 µM) | MIC (anti-bacterial activity) ([7]; strain EFA 14-2): 64 µg/mL (≈ 170 µM) | MIC (anti-bacterial activity) ([7]; strain EFA 14-3): 64 µg/mL (≈ 170 µM) | MIC (anti-bacterial activity) ([7]; strain EFA 14-5): > 128 µg/mL | MIC (anti-bacterial activity) ([9]; strain MRSE 14-2): 8 µg/mL (≈ 21.2 µM) | MIC (anti-bacterial activity) ([9]; strain MRSE 14-3): 4 µg/mL (≈ 10.6 µM) | MIC (anti-bacterial activity) ([9]; strain MRSE 14-4): 8 µg/mL (≈ 21.2 µM) | inhibition at 30 µM [10]: 7%

Measured MIC [3]: 0.5 µg/mL
Compound: C=C1C[C@@H](C(=O)Nc2ccc(F)c[n+]2[O-])N(C(=O)[C@H](CCCC)CN(O)C=O)C1 [C, reference compound]
